Measurements published in US8478375B2, “Sensor for detection of carbohydrate” (Medtronic Minimed, Inc., priority 2004, dated 2013).

Target: MBL (Homo sapiens, UniProt P11226)
Experiment: Affinity of monomeric saccharides for MBL
Assay type: binding

Chain of MBL (P11226 21-248): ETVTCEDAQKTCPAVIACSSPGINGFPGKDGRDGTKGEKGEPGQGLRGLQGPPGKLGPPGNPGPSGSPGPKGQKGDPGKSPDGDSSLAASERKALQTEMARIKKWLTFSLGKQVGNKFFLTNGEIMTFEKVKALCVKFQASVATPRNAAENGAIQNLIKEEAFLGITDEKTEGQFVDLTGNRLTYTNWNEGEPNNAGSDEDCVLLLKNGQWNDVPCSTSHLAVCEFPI

| Structure (SMILES) | affinity for MBL |
| --- | --- |
| CC(=O)N[C@H]1C(O)O[C@H](CO)[C@@H](O)[C@@H]1O (some centres unmarked) [N-acetyl-glucosamine] | high affinity |
| O=C[C@H](O)[C@@H](O)[C@@H](O)[C@H](O)CO [galactose] | very low affinity |
